Experimental data taken from US4874795A, “Composition for delivery of orally administered drugs and other substances” (priority 1986, dated 1989).
Where two headings read alike, the source gives them in different places.

What was measured:
[1] = cited from earlier work; for absorption in mixed micelle versus alone: mono-olein/sodium taurocholate
[2] = Capacity and stability of the composition as a vitamin A delivery means; type: physicochemical; settings: for Viscosity: cold solution
Method: A composition that included oleic acid, monoglyceride and lysophosphatidyl choline as described in Example I was used for characterizing the capacity of the composition for vitamin A (also as described above). Vitamin A was added in batches to the composition as follows: 1st addition, 0.277 mmoles; 2nd, 0.241; 3rd, 0.276; 4th, 0.262 and 5th, 0.285. […] The millimole ratio of the composition was approximately 2:1:0.1 (oleic acid: mono-olein:lysophosphatidyl choline).
After each addition the approximate amount of time necessary for the complete dissolution of the added vitamin A was recorded, as was the extent of schlierin evident. The time needed to obtain a minimal schlieric effect was generally between 5 minutes and 60 minutes and inversely related to the amount of vitamin A added. After each addition and the achievement of a minimal schlieric effect, the solution was placed in an ice-bath in order to evaluate its stability. The relative viscosity of the cold solution was also recorded. […]

[3] = in vivo; cited from earlier work
[4] = cited from earlier work
[5] = excess bile salts, cited from earlier work
[6] = cited from earlier work; for biological activity: oral
[7] = cited from earlier work; remark: listed apart in the source
[8] = oral, cited from earlier work
[9] = rat, in vivo
Method: Tritium labeled (^3 H) vitamin A ([…]; Hoffman LaRoche) was incorporated into a lipid formulation of the following composition: 56 mg. of oleic acid (NuCheck Prep, Inc.); 36 mg. of mono-olein (NuCheck Prep, Inc.) and 6 mg. of lysophosphatidyl choline derived from soy lecithin (A. E. Staley Mfg. Co.). This corresponds to an approximate molar ratio of oleic acid: mono-olein: lysophosphatidyl choline of 2:1:0.1. (The approximate molar percentages of the components were 64.5:32.3:3.2, respectively). The composition was administered to Sprague-Dawley rats (weighing 210-230 gm) by gavage.
Tritium-labeled vitamin A (7mg. or 0.25 millimoles) was administered to Sprague-Dawley rats (as above) in 99 mg. food grade, refined corn oil (A. E. Staley Mfg. Co.).
The concentration of vitamin A equivalents in the plasma was measured by obtaining duplicate 0.05 ml. blood samples from the orbital sinus at 0.5, 1, 2, 3, 4, 6, 8 and 24 hours after administration. The blood was collected in hematocrit tubes and centrifuged; the plasma was transferred into tared scintillation vials and weighed. The radioactivity was determined by liquid scintillation counting.

[10] = 1st addition, total 0.277 mmoles
[11] = 2nd addition, total 0.518 mmoles
[12] = 3rd addition, total 0.794 mmoles
[13] = 4th addition, total 1.056 mmoles
[14] = 5th addition, total 1.341 mmoles

**Q.** With `O=c1[nH]cc(F)c(=O)[nH]1` [5-fluorouracil] as the compound, how does the “absorption in mixed micelle versus alone” value ([1]; large intestine) read?
**A.** greater

**Q.** What about the “absorption in mixed micelle versus alone” value ([1]; stomach or small intestine) of the same compound?
**A.** little difference

**Q.** Which results are given for `CC1=C(/C=C/C(C)=C/C=C/C(C)=C/CO)C(C)(C)CCC1` [Vitamin A]?
**A.** Schleirin [2, 10]: none; Temp. to attain a clear solution [2, 10]: 20 °C; Time to attain a clear solution ([2]; 1st addition, total 0.277 mmoles, 20° C.): 1 min; Viscosity [2, 10]: normal; Schleirin [2, 11]: minimal; Temp. to attain a clear solution [2, 11]: 20 °C; Time to attain a clear solution ([2]; 2nd addition, total 0.518 mmoles, 20° C.): 1 min; Viscosity [2, 11]: normal; Schleirin [2, 12]: medium; Temp. to attain a clear solution [2, 12]: 37 °C; Time to attain a clear solution ([2]; 3rd addition, total 0.794 mmoles, 37° C.): 5 min; Viscosity [2, 12]: thicker; Schleirin [2, 13]: medium; Temp. to attain a clear solution [2, 13]: 37 °C; Time to attain a clear solution ([2]; 4th addition, total 1.056 mmoles, 37° C.): 10 min; Viscosity [2, 13]: viscous; Schleirin [2, 14]: extensive; Temp. to attain a clear solution [2, 14]: 46 °C; Time to attain a clear solution ([2]; 5th addition, total 1.341 mmoles, 46° C.): 10 min; Viscosity [2, 14]: very viscous; total vitamin A added (capacity of the composition) ([2]; approximately 1 gm of the composition, after 5th addition): 1.341 mmol

**Q.** For `CCCCCCCCCC(=O)O` [decanoic], which “absorbed fatty acid transported in the lymph” value [3] is on record?
**A.** 5-20%

**Q.** With `C[C@]12CC[C@@H]3c4ccc(O)cc4CC[C@H]3[C@@H]1CC[C@@H]2O` [estradiol] as the compound, how does the “initial concentrations in plasma of estradiol relative to lymph” value ([4]; 2:1:2 composition, excess bile salts) read?
**A.** greater than those in lymph

**Q.** What about the “estradiol co-absorbed with lipid and entering circulation via thoracic lymph” value ([4]; 2:1:2 fatty acids:monoglycerides:bile salts) of the same compound?
**A.** 25-50%

**Q.** What about the “estradiol remaining in 2:1:2 micellar composition” value ([5]; with phosphatidyl choline) of the same compound?
**A.** 70-75%

**Q.** And the “estradiol remaining associated with 2:1:2 micellar composition” value ([5]; without phosphatidyl choline)?
**A.** about 60%

**Q.** Which absorption ([6]; co-administered with high fat content meal or in oil and water emulsion) does the source give for `COC1=CC(=O)C[C@@H](C)[C@]12Oc1c(Cl)c(OC)cc(OC)c1C2=O` [griseofulvin] here?
**A.** enhanced

**Q.** With `CCCCCCCCCCCC(=O)O` [lauric] as the compound, how does the “absorbed fatty acid transported in the lymph” value [3] read?
**A.** 15-55%

**Q.** Which “absorption into lymph compared with saturated fatty acids” value [3] does the source give for `CCCCC/C=C\C/C=C\CCCCCCCC(=O)O` [linoleic] here?
**A.** more rapidly and to a greater extent

**Q.** Which “absorbed fatty acid transported in the lymph” value [3] does the source give for `CCCCCCCCCCCCCC(=O)O` [myristic] here?
**A.** 68-80%

**Q.** And the “absorption of fatty acid” value [3]?
**A.** 80-90%

**Q.** Which “increase in triglyceride and phospholipid in lymphatic transported fat” value ([7]; versus lysophosphatidyl choline from mainly saturated phosphatidyl choline) does the source give for `CCCCCCCC/C=C\CCCCCCCC(=O)OC[C@@H](O)COP(=O)([O-])OCC[N+](C)(C)C` [oleoyl lysophosphatidyl choline] here?
**A.** 100%

**Q.** With `CCCCCCCCCCCCCCCC(=O)O` [palmitic] as the compound, how does the “absorbed fatty acid transported in the lymph” value [3] read?
**A.** 85%

**Q.** And the “absorption of fatty acid” value [3]?
**A.** 65-70%

**Q.** Which biological activity ([6]; in combination with cholesterol or its esters) does the source give for `CC(=O)[C@H]1CC[C@H]2[C@@H]3CCC4=CC(=O)CC[C@]4(C)[C@H]3CC[C@]12C` [progesterone] here?
**A.** good sustained biological activity

**Q.** Which results are given for `CCCCCCCCCCCCCCCCCC(=O)O` [stearic]?
**A.** absorbed fatty acid transported in the lymph [3]: 85%; absorption of fatty acid [3]: 30-45%

**Q.** What does the source list for `[H]/N=C(/N)N[C@H]1[C@H](O)[C@@H](O)[C@H](O[C@@H]2O[C@@H](C)[C@](O)(C=O)[C@H]2O[C@@H]2O[C@@H](CO)[C@H](O)[C@@H](O)[C@@H]2NC)[C@@H](N/C(N)=N\[H])[C@@H]1O` [streptomycin]?
**A.** absorption from rectum and large intestine ([1]; in vivo): comparable; absorption via rectum and large intestine versus comparable dose administered duodenally ([1]; in vivo): markedly greater; absorption without micelle formulation ([1]; in vivo): poorly absorbed

**Q.** Which biological activity ([6]; peanut oil solution versus aqueous micro-crystalline suspension) does the source give for `CCCCCCCCCCC(=O)O[C@H]1CC[C@H]2[C@@H]3CCC4=CC(=O)CC[C@]4(C)[C@H]3CC[C@]12C` [testosterone undecanoate] here?
**A.** more biologically active

**Q.** For `COC1=C(OC)C(=O)C(C/C=C(\C)CC/C=C(\C)CC/C=C(\C)CC/C=C(\C)CC/C=C(\C)CC/C=C(\C)CC/C=C(\C)CC/C=C(\C)CC/C=C(\C)CCC=C(C)C)=C(C)C1=O` [ubidecarenone], which absorption of ubidecarenone ([8]; drug alone) is on record?
**A.** 2.3%

**Q.** And the absorption of ubidecarenone ([8]; in mixture of C12-18 fatty acids and monoglycerides)?
**A.** 8.3%

**Q.** For Corn Oil, which “absorption of vitamin A” value [9] is on record?
**A.** complete

**Q.** What about the “vitamin A absorbed” value ([9]; po, 180 min) of the same compound?
**A.** 77%

**Q.** Which “absorption from rectum and large intestine” value ([1]; bile salt: mixed lipid micelle) does the source give for gentamycin here?
**A.** comparable

**Q.** What about the “absorption via rectum and large intestine versus comparable dose administered duodenally” value ([1]; mixed lipid micelle, duodenal concentration even four times higher) of the same compound?
**A.** markedly greater

**Q.** Which “absorption from large intestine relative to small intestine” value ([1]; in vivo) does the source give for heparin here?
**A.** twice

**Q.** And the “absorption without micelle formulation” value ([1]; in vivo)?
**A.** poorly absorbed

**Q.** And the “concentration in mixed micelle for potentiation, large intestine relative to small intestine” value ([1]; in vivo)?
**A.** approximately one-fourth

**Q.** What about the “effect of mixed micelles on absorption” value ([1]; in vivo) of the same compound?
**A.** promotes the absorption

**Q.** Which “absorption of lysophosphatidyl choline” value ([7]; in vivo) does the source give for lysophosphatidyl choline here?
**A.** rapidly absorbed intact
